How the values were obtained:
[1] = tested on: KYSE-150 esophageal carcinoma cell line; test: In vitro cell-based assay: BrdU incorporation cell proliferation ELISA; parameters: species or system human; conditions: Homo sapiens, KYSE-150 cells, 168 hours compound incubation, read-out: Cellular IC50
Description: Cell lines tested include the JMJD2C gene amplified cell line KYSE-150. This is a quantitative ELISA assay measuring DNA incorporation of BrdU during S-phase as a direct readout of cellular proliferation.
Assay Principle: This is a colorimetric immunoassay for the quantification of cell proliferation. Cells treated for 168 hours with test compounds are assayed for their ability to go through S-phase as a measure of their proliferative potential.
Assay Method: The human KYSE-150 (SMAD4 mut, TP53 mut) esophageal carcinoma cell line was seeded at 2,000 cells/well on a 96-well tissue culture treated plate. After an overnight incubation, cells were treated with compound in an 11-point dilution series with final concentrations ranging from 100 μM to 2 nM. Cells were then incubated in the presence of compound for 168 hours. After compound incubation the cells were assayed using a BrdU Cell Proliferation ELISA (Roche). The cells were first incubated with BrdU labeling reagent for 2 hours. After 2 hours, the BrdU incorporated cells were fixed and denatured, probed with an anti-BrdU-Peroxidase antibody for 1.5 hours and washed. Finally, a tetramethylbenzidine peroxidase substrate was added to each well for 15 minutes followed by a H2SO4 stop solution. The plate was read at 450 nm, and the raw optical density data was transferred into XLFit (IDBS) for IC50 calculation using the formula: fit=(D+((Vmax*(x^n))/((x^n)+(Km^n))))
Table 4 provides the cellular IC50 values of various compounds disclosed herein.

JMJD2C = JMJD2C (Homo sapiens (Human), UniProt Q9H3R0); test: JMJD2C in vitro enzyme inhibition assay (TR-FRET); type: biochemical; conditions: 0.3 nM JMJD2C, 300 nM H3K9me3-biotin peptide, 2 μM alpha-ketoglutaric acid, 30 minutes
Description: This assay determines the ability of a test compound to inhibit JMJD2C demethylase activity. Baculovirus expressed JMJD2C (GenBank Accession #BC143571, AA 2-372) was purchased from BPS Bioscience (Cat#50105).
The ability of test compounds to inhibit the activity of JMJD2C was determined in 384-well plate format under the following reaction conditions: 0.3 nM JMJD2C, 300 nM H3K9me3-biotin labeled peptide (Anaspec cat #64360), 2 μM alpha-ketoglutaric acid in assay buffer of 50 mM HEPES, pH7.3, 0.005% Brij35, 0.5 mM TCEP, 0.2 mg/ml BSA, 50 μM sodium L-ascorbate, and 2 μM ammonium iron(II) sulfate. Reaction product was determined quantitatively by TR-FRET after the addition of detection reagent Phycolink Streptavidin-allophycocyanin (Prozyme) and Europium-anti-di-methylated histone H3 lysine 9 (H3K9me2) antibody (PerkinElmer) in the presence of 5 mM EDTA in LANCE detection buffer (PerkinElmer) at a final concentration of 50 nM and 1 nM, respectively.
The assay reaction was initiated by the following: 2 μl of the mixture of 900 nM H3K9me3-biotin labeled peptide and 6 μM alpha-ketoglutaric acid with 2 μl of 11-point serial diluted inhibitor in 3% DMSO were added to each well of the plate, followed by the addition of 2 μl of 0.9 nM JMJD2C to initiate the reaction. The reaction mixture was incubated at room temperature for 30 minutes, and terminated by the addition of 6 μl of 5 mM EDTA in LANCE detection buffer containing 100 nM Phycolink Streptavidin-allophycocyanin and 2 nM Europium-anti-H3K9me2 antibody. Plates were read by EnVisionMultilabel Reader in TR-FRET mode (excitation at 320 nm, emission at 615 nm and 665 nm) after 1 hour incubation at room temperature. A ratio was calculated (665/615) for each well and fitted to determine inhibition constant (IC50).
The ability of the compounds disclosed herein to inhibit demethylase activity was quantified and the respective IC50 value was determined. Table 3 provides the IC50 values of various compounds disclosed herein.

JMJD2C, sequence (Q9H3R0 2-372): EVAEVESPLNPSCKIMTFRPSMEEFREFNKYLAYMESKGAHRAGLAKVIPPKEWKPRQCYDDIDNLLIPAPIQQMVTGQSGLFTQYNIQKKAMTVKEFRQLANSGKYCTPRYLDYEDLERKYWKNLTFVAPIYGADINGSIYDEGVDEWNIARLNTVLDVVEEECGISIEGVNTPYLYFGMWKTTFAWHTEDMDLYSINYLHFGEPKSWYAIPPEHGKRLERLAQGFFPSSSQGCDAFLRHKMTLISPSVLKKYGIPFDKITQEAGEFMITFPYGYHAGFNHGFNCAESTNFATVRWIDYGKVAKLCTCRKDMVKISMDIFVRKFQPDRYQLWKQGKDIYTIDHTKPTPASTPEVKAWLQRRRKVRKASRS

| IC50 [1] [nM] | IC50 (JMJD2C) [nM] | SMILES |
| --- | --- | --- |
| > 10000 | 100 to 1000 | Oc1nc(Oc2ccc(N3CCOC(c4ccccc4)C3)cc2)nc2cnccc12 (centres unmarked) [Example 26, 2-[4-(2-phenyl-morpholin-4-yl)-phenoxy]-pyrido[3,4-d]pyrimidin-4-ol] |
| > 10000 | 100 to 1000 | CN(c1ccc(Oc2nc(O)c3ccncc3n2)cc1)c1cncc(N2CCOCC2)c1 [Example 27, 2-{4-[methyl-(5-morpholin-4-yl-pyridin-3-yl)-amino]-phenoxy}-pyrido[3,4-d]pyrimidin-4-ol] |
| 100 to 1000 | 100 to 1000 | COCC(C)c1ccc(N(C)c2ccc(Oc3nc(O)c4ccncc4n3)cc2)cc1 (centres unmarked) [Example 29, 2-(4-{[4-(2-methoxy-1-methyl-ethyl)-phenyl]-methyl-amino}-phenoxy)-pyrido[3,4-d]pyrimidin-4-ol] |
| 1000 to 10000 | 100 to 1000 | Oc1nc(Oc2ccc3c(c2)CCN3c2ccccc2)nc2cnccc12 [Example 32, 2-(1-phenyl-2,3-dihydro-1H-indol-5-yloxy)-pyrido[3,4-d]pyrimidin-4-ol] |
| > 10000 | 100 to 1000 | CN(c1ccc(Oc2nc(O)c3ccncc3n2)cc1)c1cccc(C#N)c1 [Example 40, 3-{[4-(4-hydroxy-pyrido[3,4-d]pyrimidin-2-yloxy)-phenyl]-methyl-amino}-benzonitrile] |
| > 10000 | ≤ 100 | CN(C)c1ccc(N(C)c2ccc(Oc3nc(O)c4ccncc4n3)cc2)cc1 [Example 44, 2-[4-[4-(dimethylamino)-N-methylanilino]phenoxy]pyrido[3,4-d]pyrimidin-4-ol] |
| 100 to 1000 | 100 to 1000 | CN(C)c1cccc(N(C)c2ccc(Oc3nc(O)c4ccncc4n3)cc2)c1 [Example 47, 2-[4-[3-(dimethylamino)-N-methylanilino]phenoxy]pyrido[3,4-d]pyrimidin-4-ol] |
| > 10000 | ≤ 100 | CN(c1ccc(Oc2nc(O)c3ccncc3n2)cc1)c1cccc(N2CCC(N)CC2)c1 [Example 50, 2-[4-[3-(4-aminopiperidin-1-yl)-N-methylanilino]phenoxy]pyrido[3,4-d]pyrimidin-4-ol] |
| > 10000 | 1000 to 10000 | Oc1nc(Oc2ccc(N3CCC(c4ccccc4)C3)cc2)nc2cnccc12 (centres unmarked) [Example 54, 2-[4-(3-phenylpyrrolidin-1-yl)phenoxy]pyrido[3,4-d]pyrimidin-4-ol] |
| > 10000 | ≤ 100 | CN(c1ccc(Oc2nc(O)c3ccncc3n2)cc1)c1cccc(N2CCCC(N)C2)c1 (centres unmarked) [Example 58, 2-[4-[3-(3-aminopiperidin-1-yl)-N-methylanilino]phenoxy]pyrido[3,4-d]pyrimidin-4-ol] |

Further lines, the compound ahead of its results:

| SMILES | IC50 [1] [nM] | IC50 (JMJD2C) [nM] |
| --- | --- | --- |
| CC(CC#N)c1ccc(N(C)c2ccc(Oc3nc(O)c4ccncc4n3)cc2)cc1 (centres unmarked) [Example 30, 3-(4-{[4-(4-hydroxy-pyrido[3,4-d]pyrimidin-2-yloxy)-phenyl]-methyl-amino}-phenyl)-butyronitrile] | ≤ 100 | 100 to 1000 |
| COC(C)c1ccc(N(C)c2ccc(Oc3nc(O)c4ccncc4n3)cc2)cc1 (centres unmarked) [Example 36, 2-(4-{[4-(1-methoxy-ethyl)-phenyl]-methyl-amino}-phenoxy)-pyrido[3,4-d]pyrimidin-4-ol] | 100 to 1000 | 100 to 1000 |
| CC(CN)c1ccc(N(C)c2ccc(Oc3nc(O)c4ccncc4n3)cc2)cc1 (centres unmarked) [Example 37, 2-(4-{[4-(2-amino-1-methyl-ethyl)-phenyl]-methyl-amino}-phenoxy)-pyrido[3,4-d]pyrimidin-4-ol] | > 10000 | ≤ 100 |
| COCCN(C)CC(C)c1ccc(N(C)c2ccc(Oc3nc(O)c4ccncc4n3)cc2)cc1 (centres unmarked) [Example 38, 2-{4-[(4-{2-[(2-methoxy-ethyl)-methyl-amino]-1-methyl-ethyl}-phenyl)-methyl-amino]-phenoxy}-pyrido[3,4-d]pyrimidin-4-ol] | ≤ 100 | 100 to 1000 |
| CC(c1ccc(N(C)c2ccc(Oc3nc(O)c4ccncc4n3)cc2)cc1)C1CC1 (centres unmarked) [Example 39, 2-(4-{[4-(1-cyclopropyl-ethyl)-phenyl]-methyl-amino}-phenoxy)-pyrido[3,4-d]pyrimidin-4-ol] | ≤ 100 | 1000 to 10000 |
| CN1CCN(Cc2cccc(N(C)c3ccc(Oc4nc(O)c5ccncc5n4)cc3)c2)CC1 [Example 41, 2-(4-{methyl-[3-(4-methyl-piperazin-1-ylmethyl)-phenyl]-amino}-phenoxy)-pyrido[3,4-d]pyrimidin-4-ol] | 1000 to 10000 | ≤ 100 |
| CN(c1ccc(Oc2nc(O)c3ccncc3n2)cc1)c1ccc(C2CC2)cc1 [Example 42, 2-{4-[(4-cyclopropyl-phenyl)-methyl-amino]-phenoxy}-pyrido[3,4-d]pyrimidin-4-ol] | 100 to 1000 | 100 to 1000 |
| Cc1ccc(N(C)c2ccc(Oc3nc(O)c4ccncc4n3)cc2)nc1 [Example 43, 2-[4-[methyl-(5-methylpyridin-2-yl)amino]phenoxy]pyrido[3,4-d]pyrimidin-4-ol] | 100 to 1000 | 100 to 1000 |
| CN1CCN(c2cccc(N(C)c3ccc(Oc4nc(O)c5ccncc5n4)cc3)c2)CC1=O [Example 45, 4-[3-[4-(4-hydroxypyrido[3,4-d]pyrimidin-2-yl)oxy-N-methylanilino]phenyl]-1-methylpiperazin-2-one] | > 10000 | 100 to 1000 |
| CN1CCN(c2ccc(N(C)c3ccc(Oc4nc(O)c5ccncc5n4)cc3)cc2)CC1 [Example 46, 2-[4-[N-methyl-4-(4-methylpiperazin-1-yl)anilino]phenoxy]pyrido[3,4-d]pyrimidin-4-ol] | > 10000 | 100 to 1000 |
| CN(c1ccc(Oc2nc(O)c3ccncc3n2)cc1)c1cccc(N2CCCC2)c1 [Example 48, 2-[4-(N-methyl-3-pyrrolidin-1-ylanilino)phenoxy]pyrido[3,4-d]pyrimidin-4-ol] | > 10000 | 100 to 1000 |
| CN(c1ccc(Oc2nc(O)c3ccncc3n2)cc1)c1ccc(N2CCCC2)cc1 [Example 49, 2-[4-(N-methyl-4-pyrrolidin-1-ylanilino)phenoxy]pyrido[3,4-d]pyrimidin-4-ol] | 100 to 1000 | 1000 to 10000 |
| C[C@@H](c1ccccc1)N(C)c1ccc(Oc2nc(O)c3ccncc3n2)cc1 [Example 51, 2-[4-[methyl-[(1S)-1-phenylethyl]amino]phenoxy]pyrido[3,4-d]pyrimidin-4-ol] | 1000 to 10000 | 100 to 1000 |
| C[C@H](c1ccccc1)N(C)c1ccc(Oc2nc(O)c3ccncc3n2)cc1 [Example 52, 2-[4-[methyl-[(1R)-1-phenylethyl]amino]phenoxy]pyrido[3,4-d]pyrimidin-4-ol] | 1000 to 10000 | 100 to 1000 |
| Cc1ccc(N(C)c2ccc(Oc3nc(O)c4ccncc4n3)cc2)cc1F [Example 53, 2-[4-(3-fluoro-N,4-dimethylanilino)phenoxy]pyrido[3,4-d]pyrimidin-4-ol] | 100 to 1000 | 100 to 1000 |
| Cc1ccc(N(C)c2ccc(Oc3nc(O)c4ccncc4n3)cc2)cc1N1CCOCC1 [Example 55, 2-[4-(N,4-dimethyl-3-morpholin-4-ylanilino)phenoxy]pyrido[3,4-d]pyrimidin-4-ol] | 1000 to 10000 | 100 to 1000 |
| CN(c1ccc(Oc2nc(O)c3ccncc3n2)cc1)c1cccc(S(C)(=O)=O)c1 [Example 56, 2-[4-(N-methyl-3-methylsulfonylanilino)phenoxy]pyrido[3,4-d]pyrimidin-4-ol] | > 10000 | 100 to 1000 |
| CN(c1ccc(Oc2nc(O)c3ccncc3n2)cc1)c1ccc(S(C)(=O)=O)cc1 [Example 57, 2-[4-(N-methyl-4-methylsulfonylanilino)phenoxy]pyrido[3,4-d]pyrimidin-4-ol] | > 10000 | 100 to 1000 |
